One may read the IC50 as the concentration that inhibits the measured activity by half. Read a high IC50 as weaker potency.

We go through four molecules from patent US6166051A, “Thiol derivatives with metallopeptidase (ACE/NEP) inhibitory activity” (Zambon Group S.p.A., priority 1995, dated 2000).

Experiment [1] addresses T1, NEP (neutral endopeptidase enzyme) (Rattus norvegicus, UniProt P07861).
T1 construct: from tissue; host or cells: kidney cortex membranes of male Sprague-Dawley rats
T1 sequence (P07861 1-750): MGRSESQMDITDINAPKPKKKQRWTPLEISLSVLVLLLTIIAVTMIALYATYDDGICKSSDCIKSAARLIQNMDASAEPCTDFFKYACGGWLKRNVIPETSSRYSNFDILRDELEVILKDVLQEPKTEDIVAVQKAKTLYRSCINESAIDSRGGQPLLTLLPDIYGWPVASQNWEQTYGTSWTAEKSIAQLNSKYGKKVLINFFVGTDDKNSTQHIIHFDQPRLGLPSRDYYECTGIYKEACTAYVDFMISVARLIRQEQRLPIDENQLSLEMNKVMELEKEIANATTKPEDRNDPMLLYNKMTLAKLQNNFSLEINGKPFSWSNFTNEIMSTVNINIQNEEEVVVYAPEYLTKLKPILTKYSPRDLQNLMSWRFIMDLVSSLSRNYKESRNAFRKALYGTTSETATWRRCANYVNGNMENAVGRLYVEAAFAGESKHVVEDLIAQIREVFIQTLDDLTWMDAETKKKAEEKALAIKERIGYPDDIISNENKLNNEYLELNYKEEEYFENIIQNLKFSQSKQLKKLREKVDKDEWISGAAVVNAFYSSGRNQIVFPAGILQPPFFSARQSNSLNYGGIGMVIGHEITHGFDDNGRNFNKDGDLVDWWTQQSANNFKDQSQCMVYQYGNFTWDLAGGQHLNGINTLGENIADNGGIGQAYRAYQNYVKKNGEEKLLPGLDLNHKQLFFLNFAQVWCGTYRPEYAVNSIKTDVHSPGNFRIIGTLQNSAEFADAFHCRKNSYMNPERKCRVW
The experiment can be described thus: NEP-inhibitory activity in rat kidney cortex membranes ([3H][Leu5]-enkephaline degradation). The note with it: in vitro, [3H][Leu5]-enkephaline 15 nM, 20 minutes at 30° C., pH 7.4. In kind it is biochemical. The procedure: a) NEP-inhibitory Activity
The NEP-inhibitory activity was evaluated in rat kidney cortex membranes prepared according to the procedure described by T. Maeda et al. in Biochim Biophys. Acta 1983, 731(1), 115-120.
Kidneys were removed from male Sprague-Dawley rats weighing approximately 300 g and kept at 4° C.
Kidney cortex was carefully removed, finely minced and suspended into a homogenization buffer (10 mM sodium phosphate pH 7.4 containing 1 mM MgCl2, 30 mM NaCl, 0.02% NaN3) 1:15 weight/volume.
The tissue was then cold homogenized for 30 seconds using an Ultra-Turrax homogenizer.
Approximately 10 ml of homogenate were layered over 10 ml of sucrose (41% weight/volume) and centrifuged at 31200 rpm for 30 minutes at 4° C. in a fixed angle rotor.
The membranes were collected from the buffer/sucrose interface, washed twice with 50 mM TRIS/HCl buffer (pH 7.4) and resuspended into the same buffer for the storage of aliquots at -80° C. until use.
The NEP-inhibitory activity was evaluated according to the method described by C. Llorens et aL, in Eur. J. Pharmacol., 69, (1981), 113-116, as reported hereinafter.
Aliquots of the membrane suspension prepared as above described (concentration 5 μg/ml of proteins) were preincubated in the presence of an aminopeptidase inhibitor (Bestatin--1 mM) for 10 minutes at 30° C. [^3 H][Leu^5 ]-enkephaline (15 nM) and buffer TRIS/HCl pH 7.4 (50 mM) were added in order to obtain a final volume of 100 μl.
The enzymatic reaction was stopped by adding HCl 0.1M (100 μl) after 20 minutes of incubation at 30° C.
The formation of the metabolite [^3 H]Tyr-Gly-Gly was quantified, after separation of the unreacted substrate by chromatography on polystyrene columns (Porapak Q), by measuring the relative radioactivity through liquid scintillation.
The percentage of inhibition of the metabolite formation in the membrane preparations treated with the compounds of formula I and with the comparative compounds with respect to the untreated membrane preparations was expressed as IC50 (nM) value.

Experiment [2] deals with T2, ACE (angiotensin converting enzyme) (Oryctolagus cuniculus, UniProt P12822).
T2 construct: purchased SIGMA; host or cells: rabbit lung
T2 sequence (P12822 34-1310): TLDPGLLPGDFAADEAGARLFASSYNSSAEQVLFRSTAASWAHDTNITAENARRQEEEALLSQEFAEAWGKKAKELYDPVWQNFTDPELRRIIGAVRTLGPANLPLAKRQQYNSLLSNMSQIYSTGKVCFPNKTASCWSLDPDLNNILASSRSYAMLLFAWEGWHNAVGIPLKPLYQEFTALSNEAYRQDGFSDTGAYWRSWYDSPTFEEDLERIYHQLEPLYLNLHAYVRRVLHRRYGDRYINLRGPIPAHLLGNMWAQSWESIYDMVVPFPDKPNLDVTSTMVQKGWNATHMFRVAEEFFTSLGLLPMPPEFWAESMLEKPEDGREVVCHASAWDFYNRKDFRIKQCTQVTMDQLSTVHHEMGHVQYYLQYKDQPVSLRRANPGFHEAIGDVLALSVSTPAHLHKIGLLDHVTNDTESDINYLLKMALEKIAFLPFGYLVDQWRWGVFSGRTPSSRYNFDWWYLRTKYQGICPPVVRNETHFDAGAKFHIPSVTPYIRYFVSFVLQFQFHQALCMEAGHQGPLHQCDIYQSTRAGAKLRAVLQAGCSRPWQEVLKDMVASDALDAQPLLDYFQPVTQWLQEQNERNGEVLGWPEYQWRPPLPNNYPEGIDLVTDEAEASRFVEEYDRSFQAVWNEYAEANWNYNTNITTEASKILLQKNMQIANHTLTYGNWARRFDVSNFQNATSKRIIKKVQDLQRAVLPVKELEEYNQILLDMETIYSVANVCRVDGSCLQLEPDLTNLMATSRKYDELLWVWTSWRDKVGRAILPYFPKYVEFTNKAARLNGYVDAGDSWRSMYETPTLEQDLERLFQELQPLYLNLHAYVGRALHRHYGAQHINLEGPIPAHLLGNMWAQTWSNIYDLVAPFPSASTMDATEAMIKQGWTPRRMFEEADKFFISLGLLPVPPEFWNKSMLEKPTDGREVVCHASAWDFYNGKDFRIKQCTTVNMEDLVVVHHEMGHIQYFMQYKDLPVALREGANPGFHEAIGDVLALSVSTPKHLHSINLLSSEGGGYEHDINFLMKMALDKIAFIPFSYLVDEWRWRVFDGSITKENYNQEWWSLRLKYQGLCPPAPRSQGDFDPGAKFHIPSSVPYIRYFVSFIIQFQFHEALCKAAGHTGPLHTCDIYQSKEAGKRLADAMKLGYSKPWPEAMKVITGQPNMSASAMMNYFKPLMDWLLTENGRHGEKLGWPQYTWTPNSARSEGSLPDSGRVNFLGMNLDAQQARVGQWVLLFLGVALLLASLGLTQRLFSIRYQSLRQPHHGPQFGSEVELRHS
The experiment can be described thus: ACE-inhibitory activity (FAPGG substrate, absorbance at 340 nm). To be noted: in vitro, ACE purified from rabbit lung, 37° C. In kind it is biochemical. The procedure:
b) ACE-inhibitory Activity
50 μM of ACE (250 μmU/ml purified by lung rabbit, EC 3.4.15.1 SIGMA) were preincubated with 50 μl of the compound of formula I or of the comparison compound or related vehicle in thermostated cuvettes at 37° C.
The reaction was started by adding 500 μl of furylacryloylphenylalanylglycylglycine 0.8 mM (FAPGG-SIGMA).
Contemporaneously, by using a Beckman DU-50 spectrophotometer provided with a program for calculating delta A/minutes and regression coefficients of the enzyme kinetics curyes, the absorbance at 340 nm was recorded in continuo for 5 minutes.
The percentage of inhibition in the preparations incubated with the compounds of formula I or with the comparative compounds with respect to the preparations incubated with the vehicle was expressed as IC50 (nM) value.

Each structure is given as a SMILES string.

In the case of `C[C@H](CS)C(=O)N1CCC[C@H]1C(=O)O` [Captopril, reference compound], the “NEP-inhibitory activity IC50 (nM)” value in experiment [1] is reported as “not active”.

Turning to `O=C(N[C@@H](Cc1cscn1)C(=O)O)C(CS)Cc1ccccc1` (stereo partly drawn) [compound 4, N-(2-phenylmethyl-3-mercaptopropionyl)-(4-thiazolyl)-L-alanine], the figures for the IC50 in experiment [1] and in experiment [2] were 4.7 nM and 12 nM, respectively.

Consider `O=C(N[C@@H](Cc1cccs1)C(=O)O)C(CS)Cc1ccccc1` (stereo partly drawn) [compound 5, N-(2-phenylmethyl-3-mercaptopropionyl)-(2-thienyl)-L-alanine], for which the values for the IC50 in experiment [1] and in experiment [2] were 5.5 nM and 6.5 nM, respectively.

For the molecule `O=C(N[C@@H](Cc1ccccn1)C(=O)O)C(CS)Cc1ccccc1` (stereo partly drawn) [compound 6, N-(^2-phenylmethyl-3-mercaptopropionyl)-(2-pyridyl)-L-alanine], the IC50 came out at 7.1 nM in experiment [1] and 23 nM in experiment [2].
